Measurements taken from patent publication US20230040415A1 (PureTech LYT 100, Inc., priority 2020, published 2023).
Where two headings read alike, the source gives them in different places.

Legend:
[1] = Repeat dose oral toxicity and toxicokinetics study in Sprague Dawley rats; conditions: for dose proportionality of AUC0-24 / dose proportionality of Cmax: SD-560 250 to 750 mg/kg, Groups 2 to 4; for exposure in rat relative to human: male rat after 28 days of daily dosing vs human
Procedure: The protocol was amended to add additional TK male animals in Group 6 for Day 1 collection of TK samples at 875 mg/kg.
Blood samples were collected from 3 subsets of 3 animals/sex on Day 1 and Day 28 at predose, 0.25, 0.5, 1, 2, 4, 8 and 24 hours (hr) post-dose for groups 2 to 6 and from one subset of 3 animals/sex at 0.25 hr post-dose for the vehicle group (group 1). […] Non-compartmental analysis (NCA) of plasma concentration data was conducted using Phoenix® WinNonlin®, version 8.0.

[2] = Multiple ascending dose (MAD) study Part 1, plasma pharmacokinetics
Procedure: All Part 1 cohorts will be dosed every 12 hours with food for 5 days.
During the treatment period (Day 1 through Day 5), subjects will be administered their assigned study medication BID, every 12 h±0.25 h (with approximately 240 mL of non-carbonated water), 30 minutes after the start of consumption of their standardised breakfast or dinner (12 h apart). A standardised lunch will be served >4 h post breakfast and >4 h prior to dinner. An evening snack will be served >3 h following evening study medication administration. No additional fluids will be allowed during the 1 h pre- and post-doses. On Day 6, subjects will replicate mealtimes as scheduled on Day 1-5. To ensure study drug dosing every 12 hours, here is an example of meal and dosing schedule in Part 1: • Breakfast: meal to be served 30 mins prior to AM dosing. Breakfast must be completed within 30 mins of start time. • Lunch: meal to be served at least 4 h post-AM study drug dose. • Dinner: meal to be served at least 11.5 h post-AM dose and served 30 minutes prior to PM study drug dose. • Evening snack: Snack to be served at least 15 h post-AM dose (at least 3 h post-PM dose).
In Part 1, blood samples (4 mL each) for PK will be collected for Cohorts 1, 2, 3, 4, and 6 at specified times (hours) at each as follows: • Day 1 and Day 5: 0 (pre-dose), 0.5, 1, 1.5, 2, 2.5, 3, 3.5, 4, 6, 8, 12 (pre-dose), 13, 14, 15, 16, 18 h • Day 2, Day 3 and Day 4: 0 (pre-morning-dose) and 12 h (pre-evening-dose) • Day 6: 12, 18, 24 and 36 h post-last dose • Day 7: 48 h (post-last dose)
Pharmacokinetics for Day 1 to 3 in Part 2 (fed state) will be compared to PK for Day 1 to Day 3 in Part 2 (fasted state). Plasma PK parameters (non-compartmental or compartmental analysis as appropriate) will include, but are not limited to: • Following single dose: Tmax, tlag, Cmax, AUC0-4, AUC0-last, AUC0-inf, lambda z, % AUCext, CL/F, Vz/F, Cmax/D, AUC0-last/D, AUC0-inf/D and MRT (D is dose) • After repeated doses: Ctrough, Ctrough/D • Following repeated doses on last day: Tmax, Cmax, Cavg, tlag, t1/2, AUC0-4, AUC0-last, AUC0-inf, lambda z, % AUCext, CLss/F, Vzss/F, MRT, PTF, Rac(AUC), Rac(Cmax), Cmax/D, AUClast/D, AUC0-inf/D and Rac (accumulation ratio) Part 3 (Patients with Secondary Lymphoedema Post-Axillary/Post-Sentinel Node Dissection)

[3] = set-up: AUC, Fasted / AUC, Fed: unit not given beside the values; conditions: cited from earlier work; for share of recovered drug material in urine excreted as label: humans, oral pirfenidone
[4] = Food effect study Part 2, single 500 mg dose fed vs fasted; type: in vivo, human
Procedure: The comparison will be based on Day 1, Day 2 and Day 3 PK plasma samples after the first dose of study drug on Day 1 under fast and fed conditions of Part 2.
Subjects will be admitted to the CRU on Day −1 and will fast overnight for at least 10 h.

[5] = Single-dose crossover clinical trial, 801 mg LYT-100 vs pirfenidone, plasma pharmacokinetics; conditions: for Cmax / % AUC extrap / AUC0-t / AUC(inf) / Kel / t1/2 / tmax: fed, analyte = label; for Cmax / % AUC extrap / AUC0-t / AUC(inf) / Kel / t1/2: mean; for Cmax: n = 24; for tmax: median
Description: Following screening, eligible healthy volunteer subjects were admitted to a single clinical study site and were randomized to 1 of 2 treatment sequences. […] In each period, a standardized breakfast was provided to subjects prior to administration of study drug (to compare the PK profiles in the clinically relevant fed state) and plasma samples were collected over a 48-hour period after dosing for evaluation of PK. Dosing between the 2 periods was separated by a minimum of 7 days. Subjects completed the study upon completion of the 48-hour post-dose assessments following dosing period 2.
All capsules were identical in size, shape, and external color.
The mean Cmax values are computed from each individual subjects Cmax value (which could occur at different Tmax times for each individual), i.e., the mean Cmax value reported in the PK parameter table is not the Cmax for a mean concentration-time curve.

[6] = cited from earlier work
[7] = Day 1, Female, label = Group 4 analyte vs its non-deuterated counterpart
[8] = FIG. 23 (Cohort 6, 1000 mg BID)
[9] = LYT-100 100, 250, 500, 750 mg BID cohorts (FIG. 19)
[10] = LYT-100 @500 mg single dose, analyte = label
[11] = LYT-100 @500 mg, 5-CO2 metabolite
[12] = Treatment = LYT-100, single 801 mg oral dose
[13] = Treatment = LYT-100, single 801 mg
[14] = Treatment = Pirfenidone, single 801 mg oral dose
[15] = Treatment = Pirfenidone, single 801 mg

Row | SMILES | AUC ratio Group 4 (LYT-100 at 750 mg/kg) / Group 5 (SD-559 at 750 mg/kg) [1, 7] | AUC ratio Group 4 (LYT-100 at 750 mg/kg) / Group 5 (SD-559 at 750 mg/kg) ([1]; Day 1, Male) | AUC ratio Group 4 (LYT-100 at 750 mg/kg) / Group 5 (SD-559 at 750 mg/kg) ([1]; Day 28, Female) | AUC ratio Group 4 (LYT-100 at 750 mg/kg) / Group 5 (SD-559 at 750 mg/kg) ([1]; Day 28, Male) | dose proportionality of AUC0-24 [1] | dose proportionality of Cmax [1] | exposure in rat relative to human [1] [fold] | average ratio of metabolite to the parent (M/P) by AUC [2, 8] | average ratio of metabolite to the parent (M/P) by AUC [2, 9] | share of recovered drug material in urine excreted as label [3] | Cmax [5, 12] [ng/mL] | % AUC extrap [5, 13] [%] | AUC0-t [5, 13] [ng·h/mL] | AUC(inf) [5, 13] [ng·h/mL] | Kel [5, 13] [h⁻¹] | t1/2 [5, 13] [h] | tmax [5, 13] [h] | Cmax [5, 14] [ng/mL] | % AUC extrap [5, 15] [%] | AUC0-t [5, 15] [ng·h/mL] | other results
1 | O=C(O)c1ccc(=O)n(-c2ccccc2)c1 [LYT-105, 5-carboxy-pirfenidone] | 0.49 | 0.45 | 0.71 | 0.57 | dose proportional | approximately dose proportional | ~7 | 0.56 (0.44-0.66) | 0.45 | > 95% | 3970 | 1.13 | 23090 | 23350 | 0.262 | 2.91 | 2.50 | 5241 | 0.843 | 26932 | lower Cmax and exposure than SD-789 formed from SD-559 ([1]; SD-560 750 mg/kg vs SD-559 750 mg/kg): approximately 50%; average ratio of metabolite to the parent (M/P) by AUC ([2]; LYT-100 100, 250, 500, 750 mg BID cohorts (FIG. 19), listed as SD-789): 0.45 (0.37-0.50); dose dependence of AUC96-108 ([2]; across all dose Cohorts, 100-1000 mg BID): linear dose proportionality; plasma exposure relative to exposure to pirfenidone ([3]; Huang, 2013): approximately 50%; AUC, % Change Fed vs Fasted [4, 10]: < 5%; Cmax, % Change Fed vs Fasted [4, 10]: < 5%; Tmax, Fasted [4, 11]: 0.75 h; Tmax, Fed [4, 11]: 1 h; AUC(inf) [5, 15]: 27159 ng·h/mL; Kel [5, 15]: 0.288 h⁻¹; t1/2 [5, 15]: 2.55 h; tmax [5, 15]: 3.00 h; Cmax reduction of 5-carboxy-pirfenidone after LYT-100 relative to pirfenidone ([5]; single 801 mg dose each): 25%
2 | O=c1ccc(CO)cn1-c1ccccc1 [LYT-111, 5-hydroxymethyl-pirfenidone] | – | – | – | – | – | – | – | – | – | – | – | – | – | – | – | – | – | 17.1 | 10.3 | 75.8 | AUC(inf) [5, 15]: 89.7 ng·h/mL; Kel [5, 15]: 0.367 h⁻¹; t1/2 [5, 15]: 2.04 h; tmax [5, 15]: 2.50 h; overall systemic exposure (AUC) of metabolite greater after LYT-100 than after pirfenidone ([5]; single 801 mg dose each): approximately 50%
3 | [2H]C([2H])([2H])c1ccc(=O)n(-c2ccc(O)cc2)c1 [LYT-103, d3-4′-hydroxy-pirfenidone] | 21.77 | 34.51 | 38.04 | – | dose proportionally | less than dose proportional | – | 0.0037 (0.0030-0.0058) | 0.0017 (0.0012-0.0022) | – | – | – | – | – | – | – | – | – | – | – | quantifiability of metabolite in human ([5]; after LYT-100): not quantifiable
4 | [2H]C([2H])(O)c1ccc(=O)n(-c2ccccc2)c1 [LYT-110, 5-(hydroxymethyl-d2)-pirfenidone] | 2.50 | 2.22 | 2.59 | 2.54 | dose proportional | dose proportional | ~1600 | 0.0028 (0.0018-0.0038) | 0.0025 (0.0020-0.0029) | – | 20.6 | 10.1 | 111 | 124 | 0.294 | 2.76 | 2.50 | – | – | – | exposure and Cmax vs non-deuterated metabolite SD-788 from SD-559 ([1]; 750 mg/kg, all days, both genders): almost twice
5 | Cc1ccc(=O)n(-c2ccccc2)c1 [Pirfenidone, 5-methyl-1-phenyl-1H-pyridin-2-one] | – | – | – | – | – | – | – | – | – | less than 1% | – | – | – | – | – | – | – | – | – | – | diarrhea, frequency ([6]; Lancaster et al. 2017, IPF): ≤ 27.6 per 100PEY; fatigue, frequency ([6]; Lancaster et al. 2017, IPF): ≤ 52.4 per 100PEY; nausea, frequency ([6]; Lancaster et al. 2017, IPF): ≤ 62.1 per 100 PEY; adverse drug reactions leading to permanent treatment discontinuation ([6]; PASSPORT study, Cottin et al. 2018): 28.7%; patients with an adverse event ([6]; compassionate use program, Raghu & Thickett 2013): 44%; patients with ADR leading to discontinuation ([6]; patients aged <65 years): 7.5%; patients with ADR leading to dose modification/interruption ([6]; patients aged <65 years): 18.0%; patients with ADR leading to discontinuation ([6]; patients aged ≥80 years): 20.9%; patients with ADR leading to dose modification/interruption ([6]; patients aged ≥80 years): 32.7%; elevations of AST and ALT to >3× ULN ([6]; phase III trials): 3.2%; reported AEs that were GI-related ([6]; single-center retrospective study of 351 patients): 75%; AUC, Fasted ([3]; Pirfenidone @800 mg): 69.7; AUC, Fed ([3]; Pirfenidone @800 mg): 59.3; Tmax, % Change Fed vs Fasted ([3]; Pirfenidone @800 mg): 500%; Tmax, Fasted ([3]; Pirfenidone @800 mg): 0.5 h
